We go through 3 molecules from EP2891491A1, “Use of (r)-phenylpiracetam for the treatment of sleep disorders” (Merz Pharma GmbH & Co. KGaA, priority 2014, dated 2015).

What is called half-life is the time in which the quantity being followed falls by half.

One series deals with subjects with PD and EDS. Particulars: 200 to 400 mg/day vs placebo, 40 subjects with PD and EDS; cited from earlier work.
For series [1] the following is noted: humans, administered orally; cited from earlier work.
Another series has as its system rats. Description: motivation tests: progressive ratio task, cost-benefit choice test, consumption test. It is filed as in vivo. The method, then:
EXAMPLE 6: Effect of (R)-phenylpiracetam in motivation tests - Figs. 5, 6, 7, 8
Methylphenidate purchased from Sigma (Taufkirchen, Germany) was dissolved in distilled water fresh for each test day. D-Amphetamine purchased from Sigma (Taufkirchen, Germany) was dissolved in 0.9% sterile NaCl solution fresh for each test day. (R)-Phenylpiracetam was dissolved in distilled water fresh for each test day.
One hundred and three male Sprague-Dawley rats (Janvier, Le Genest-St-Isle, France) weighing 225-250 g on arrival were used.
The animals were kept under standard laboratory conditions in groups of up to 4 per care with ad libitum access to water. Standard diet for rodents (Altromin) was available to the animals at 15 g per animal/day
For each test described below, two independent experiments were performed using an identical protocol. After continuous reinforcement training (CRF) training (see below) all animals were assigned to treatment groups, such that performance across all the groups was similar. The treatment groups were evenly distributed throughout the caging system.
In experiment 1 and 2 the following protocols were used:
Overview: Three tests were performed in a consecutive manner on subsequent days. On day 1-2, animals were habituated individually to Skinner boxes in two sessions, one per day, for 30 min. Animals received "free" food pellets at a random time (one pellet per minute on average). On days 3-8 animals were trained in Skinner boxes on a continuous reinforcement schedule (one pellet per lever press). On days 9-10 they were tested in the progressive ratio test (Test 1) off-drug, on days 11-12 on-drug. On day 13, a choice test (Test 2) was performed on-drug, on day 14, a consumption test (Test 3) was performed on-drug. Below, tests are described in detail.
Behavioral testing was conducted in 12 operant test chambers (Med Associates, St. Albans, USA). Each chamber was equipped with a retractable lever, a food dispenser with receptacle, an overhead house light and two stimulus lights, one above the lever and the other above the food receptacle. An infrared photocell beam detected nose pokes into the food receptacle. The apparatus was controlled by a computer system (SmartControl®-Interface and MedPC-software, Med Associates, St. Albans, USA). The light above the food receptacle indicated the delivery of a food pellet in the receptacle. Rats were first habituated to the operant boxes for two sessions (30 min each) on two consecutive days. Thereafter, animals were trained for six sessions on the CRF schedule for 30 min. Followed by 4 sessions (two session off-drug followed by two sessions on-drug) of an increasing fixed ratio (FR) schedule in steps of 5, with 3 repetitions of each step (i.e. 1-1-1; 5-5-5; 10-10-10; ...). When the required FR value of each trial was achieved the light above the food receptacle indicated the delivery of a single food pellet (45 mg, Bioserve, USA). The light remained on until the rat poked its nose in the receptacle. Lever presses while the light was on were counted as perseverative lever presses; they were counted but had no programmed consequences. […] For each session, the value of the last completed ratio (breaking point) was recorded as well as the amount of received rewards, the perseverative lever presses, the duration of the session and the latency to respond. Animals of all treatment groups received respective vehicle/drug infusions 30 min pre-test on the final two sessions involving testing under a PR schedule.
In this task the rats had the choice between working for their preferred food (Bioserve pellets) by pressing the lever on a PR schedule as described above or obtaining lab chow being freely available in a dish (about 15 g) within the operant chamber. The food receptacle and the lever were positioned on the same wall of the operant chamber, the dish containing the lab chow was situated in a corner on the opposite side of the operant chamber. […]

The conditions of series [2]: just slightly stronger with (R)- than with (S)-phenylpiracetam; cited from earlier work.

With `NC(=O)C[S+]([O-])C(c1ccccc1)c1ccccc1` (stereo not drawn) [modafinil], the “Epworth sleepiness score (primary outcome measure) and secondary outcome measures” value in the series on subjects with PD and EDS is “no benefit”.

Regarding `NC(=O)CN1CC(c2ccccc2)CC1=O` (racemic) [phenylpiracetam, 2-(4-phenyl-2-oxopyrrolidin-1-yl)acetamide], the half-life in series [1] was 3 to 5 h.

In the case of `NC(=O)CN1C[C@H](c2ccccc2)CC1=O` [(S)-phenylpiracetam, reference compound], the effect on motivation entry is “only a very weak effect” in the series on rats (100 mg/kg) and “no significant effect” in the series with rats (200 mg/kg). The “effect on motivation relative to (R)-phenylpiracetam” value in the series with rats (100 mg/kg, times lower than (R)-phenylpiracetam) is listed as 2.5 times. In addition, the “locomotor activity in the open-field test” value in series [2] was “significant increase”.
